Test [1] has as its target T1, glycine transporter encoded by rB20a (Rattus norvegicus, UniProt P28572).
T1 construct: expressed in transfected cells
T1 sequence (P28572 1-638): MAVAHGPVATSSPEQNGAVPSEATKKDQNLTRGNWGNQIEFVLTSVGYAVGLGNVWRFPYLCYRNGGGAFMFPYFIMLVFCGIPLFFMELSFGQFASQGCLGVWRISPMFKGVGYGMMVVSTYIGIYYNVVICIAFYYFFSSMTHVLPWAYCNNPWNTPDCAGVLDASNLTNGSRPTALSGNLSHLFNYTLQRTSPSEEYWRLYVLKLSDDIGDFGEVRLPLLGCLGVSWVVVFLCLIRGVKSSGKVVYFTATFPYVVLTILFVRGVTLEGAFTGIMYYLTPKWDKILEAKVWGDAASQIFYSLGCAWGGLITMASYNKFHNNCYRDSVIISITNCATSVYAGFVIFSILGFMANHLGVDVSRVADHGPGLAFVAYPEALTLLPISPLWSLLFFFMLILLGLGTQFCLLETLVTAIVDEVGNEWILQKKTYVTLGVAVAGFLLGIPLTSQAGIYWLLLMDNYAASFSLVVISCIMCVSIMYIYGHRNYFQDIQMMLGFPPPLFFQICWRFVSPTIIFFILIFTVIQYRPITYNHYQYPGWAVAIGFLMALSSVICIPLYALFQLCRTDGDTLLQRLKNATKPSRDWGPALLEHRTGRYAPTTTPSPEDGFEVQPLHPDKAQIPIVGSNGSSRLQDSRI
Briefly: Competition for [3H]glycine uptake by COS-7 cells transfected with rB20a. The settings on record: for inhibition at 1000 µM / inhibition at 10 µM / inhibition at 100 µM: COS-7, 10 min, read-out: % displacement of specific [3H]glycine uptake; for % displacement of specific [3H]glycine uptake: 50 nM [3H]glycine, 10 minutes, 37° C. It is filed as cell-based. As for the experimental part:
(§1) These two clones were constructed into a full-length clone (designated rB20a) by ligation at their internal Nco I sites and then cloned into the eukaryotic expression vector pSVL (Pharmacia LXB Biotechnology, Piscataway, N.J.). Transient transfection of COS cells was carried out using DEAE-dextran with DMSO according to the method of Lopata et al. (1984) with minor modifications. COS cells were grown in six-well plates (37° C.,5%CO2) in high glucose Dulbecco's modified Eagle medium supplemented with 10% bovine calf serum, 100 U/ml penicillin G, and 100 μg/ml streptomycin sulfate. Cells were routinely used two days after transfection for transport studies.
(§2) Plates were incubated at 37° C. for 10 or 20 minutes, then washed rapidly 3× with HBS. Cells were solubilized with 0.05% sodium deoxycholate/0.1N NaOH (1 ml/well), 0.5 ml aliquots were removed, neutralized with 1N HCl, and radioactivity was determined by scintillation counting. Protein was quantified in an aliquot of the solubilized cells with the Bradford Reagent (Biorad, Richmond, Calif.), according to the manufacturer's directions.
Nonspecific uptake was determined with 1 mM

Test [2] concerns the target T1, glycine transporter encoded by rB20a. Briefly: Transport of radiolabeled substrates by COS cells transiently transfected with rB20a. The format is cell-based. The settings on record: data not shown. As for the experimental part:
as §1, §2

Test [3] concerns high-affinity transporter present in glial cell cultures. The settings on record: read-out: Km for glycine; cited from earlier work.
For test [4], the system named is high-affinity transporter in rat brain synaptosomes. The settings on record: read-out: Km for glycine; cited from earlier work.

As for `NC[C@H](O)c1ccc(O)c(O)c1` [(-)-norepinephrine], the inhibition at 1000 µM in test [1] came out at 0%.

Regarding `NCCCC(=O)O` [GABA, gamma-aminobutyric acid], the inhibition at 1000 µM in test [1] was found to be 0%.

`C[C@H](N)C(=O)O` [L-alanine]: the inhibition at 1000 µM in test [1] is 2%.

As to `N[C@@H](CCC(=O)O)C(=O)O` [L-glutamate], in test [1], the inhibition at 1000 µM was determined as 0%.

Consider `N[C@@H](CO)C(=O)O` [L-serine], for which the inhibition at 1000 µM in test [1] amounted to 4%. Further, the “% displacement of specific [3H]glycine uptake” value (from here on “% displacement of specific”) in test [1] (inhibitor 1 mM) is “Neither α-(methylamino) isobutyric acid (1 mM), a substrate for system A, nor L-serine (1 mM), a substrate for system ASC, significantly competed”.

With `NCCc1c[nH]c2ccc(O)cc12` [[^3 H]5-HT], in test [2], the “effect of rB20a expression on uptake of the radiolabeled substrate” value (“effect of rB20a expression” for short) is reported as “did not significantly alter”.

As for `NCCCC(=O)O` [[^3 H]GABA], the “effect of rB20a expression” value in test [2] was “did not significantly alter”.

For the compound `NCCc1ccc(O)c(O)c1` [[^3 H]dopamine], the “effect of rB20a expression” value in test [2] is recorded as “did not significantly alter”.

Regarding `NCCc1cnc[nH]1` [[^3 H]histamine], the “effect of rB20a expression” value in test [2] is “did not significantly alter”.

For the compound `[3H][C@](O)(CN)c1ccc(O)c(O)c1` [[^3 H]norepinephrine], the “effect of rB20a expression” value in test [2] is listed as “did not significantly alter”.

As for `N[C@@H](Cc1ccc(O)cc1)C(=O)O` [[^3 H]tyrosine], the “effect of rB20a expression” value in test [2] was “did not significantly alter”.

Consider `NCCc1ccc(O)c(O)c1` [dopamine], for which the inhibition at 1000 µM in test [1] is 0%.

In the case of `CCOC(=O)CN` [glycine ethyl ester], in test [1], the inhibition at 10 µM was 0%, the inhibition at 100 µM turned out to be 0% and the inhibition at 1000 µM was determined as 32%. For the same compound, the “% displacement of specific” value in test [1] (inhibitor 10 μM) was “no inhibition”. Further, the “% displacement of specific” value in test [1] (inhibitor 100 μM) was “no inhibition”.

For `COC(=O)CN` [glycine methyl ester], in test [1], the inhibition at 10 µM came out at 0%, the inhibition at 100 µM turned out to be 0% and the inhibition at 1000 µM came to 42%. The “% displacement of specific” value in test [1] (inhibitor 10 μM) was “no inhibition”. Moreover, the “% displacement of specific” value in test [1] (inhibitor 100 μM) was “no inhibition”.

Turning to `NCC(=O)O` [glycine], the Km in test [3] was 95 µM; in test [4], 50 µM. In test [1], the inhibition at 1000 µM came to 100%.

For the compound `NCCc1c[nH]cn1` [histamine], in test [1], the inhibition at 1000 µM came out at 0%.

Regarding `CNCC(=O)O` [sarcosine, N-methylglycine], in test [1], the inhibition at 10 µM turned out to be 23%, the inhibition at 100 µM was 64% and the inhibition at 1000 µM was determined as 100%. The IC50 in test [1] (estimated from inhibition at three concentrations) is roughly 50 µM.

Turning to `CNC(C)(C)C(=O)O` [α-(methylamino)isobutyric acid], in test [1], the inhibition at 1000 µM was 3%. Also, in test [1] (inhibitor 1 mM), the “% displacement of specific” value was “Neither α-(methylamino) isobutyric acid (1 mM), a substrate for system A, nor L-serine (1 mM), a substrate for system ASC, significantly competed”.

Regarding ^3 H]glutamate, the “effect of rB20a expression” value in test [2] was “did not significantly alter”.

In general, Km refers to the concentration of substrate that gives half-maximal velocity. A word on the IC50: it is the concentration that inhibits the measured activity by half.

The record behind these values is patent US5756348A (Synaptic Pharmaceutical Corporation, priority 1994, dated 1998).
